Reference: patent US4163799A, “Psychostimulant compounds” (Union Chimique Continentale U.C.C., priority 1975, dated 1979)
Where a name gives a salt, the structure may show the parent alone.

Tests used:
[1] = Motor activity in the mouse (photoelectric cell actimeter); assay type: in vivo, mouse (male, Swiss NMRI)
Method: (§1) All the experiments described below were carried out on male rats weighing between 170 and 220 g (Wistar AF strain) and male mice weighing between 18 and 23 g (Swiss NMRI strain), unless indicated to the contrary. All the experiments were conducted in a constant-temperature laboratory (22±1° C.). […] Unless indicated to the contrary 10 animals per batch were always used.
The motor activity was determined with the aid of photoelectric cell actimeters (Boissier and Simon, Arch. int. Pharmacodyn. 1965, 158, 212-221). Twelve animals per batch were always used as a minimum.

[2] = Modification of hypnotic effects (pentobarbital), rat; assay type: in vivo, rat (male, Wistar AF); settings: 16, 32, 64 mg/kg orally, with or 60 minutes before pentobarbital
Method: as §1

[3] = Antireserpine activity test, rat; assay type: in vivo, rat (male, Wistar AF); settings: 8, 16, 32 mg/kg orally, reserpine 2.5 mg/kg IP 4 hours before
Method: as §1

[4] = Determination of acute toxicity in the mouse (LD50, Behrens and Karber method); design: species or system mouse (male, Swiss NMRI); settings: in vivo
Method: as §1

[5] = Observation of animals, mouse; assay type: in vivo, mouse (male, Swiss NMRI)
Method: as §1

Perforated board test = assay type: in vivo
Method: as §1
The technique and apparatus described by Boissier and Simon (Physiol. Behav. 1967, 2, 444-448) were used. In these experiments 15 animals per group were used (except for 30 for the controls and 30 for the 32 mg/kg dose).

[6] = Antihypnotic effect / pentobarbital antagonism (conclusion); assay type: in vivo
[7] = Interaction with convulsants: electric shock; assay type: in vivo, mouse (male, Swiss NMRI); settings: 4, 16, 64 mg/kg orally 60 minutes before electric shock
Method: as §1

[8] = Hot plate test with the mouse; assay type: in vivo, mouse (male, Swiss NMRI)
Method: as §1
This test was used to measure the reaction time of the animals to a painful stimulus. Ten animals were used per point. Fifteen minutes after oral administration of NaAHDH (32 mg/kg) the reaction time (licking of front paws) of the mice exposed to the hot plate was 5.8 seconds while that of the controls was 7.3 seconds (significant difference at the 0.05 threshold).

[9] = Antireserpine activity test, mouse; assay type: in vivo, mouse (male, Swiss NMRI); settings: 8, 16, 32 mg/kg orally, reserpine 2.5 mg/kg IP 4 hours before
Method: as §1

[10] = Anticataleptic activity test (prochlorperazine); assay type: in vivo, rat (male, Wistar AF); settings: 8 or 32 mg/kg ip or orally; prochlorperazine 8 mg/kg ip; homolateral paws, buddha, rocking plate tests
Method: as §1

[11] = Motor activity in the rat (actimeter); assay type: in vivo, rat (male, 90-110 g)
Method: as §1
The motor activity was determined on male rats weighing between 90 and 110 g with the aid of the actimeter, the same instrument cited with regard to motor activity in the mouse.
The NaAHDH doses were given immediately before the actimeter was switched on.

[12] = Avoidance conditioning, two-compartment shuttle-box; assay type: in vivo, rat (male, Wistar AF); settings: 16 and 64 mg/kg orally, previously trained rats
Method: as §1
This avoidance conditioning in the rat placed in a two-compartment shuttle-box described by Boissier and Simon (Therapie 1968, 23, 1267-1276) was studied.

[13] = Overall activity and wakefulness profile (conclusion of the study); assay type: in vivo, rat and mouse
[14] = Observation of animals, rat; assay type: in vivo, rat (male, Wistar AF)
Method: as §1

monoaminoxidase = test: Inhibitory effect of monoaminoxidase (tryptamine test); assay type: in vivo, rat (male, Wistar AF); settings: 16 and 64 mg/kg orally; tryptamine 3 mg/kg IV
Method: as §1

[15] = 64 mg/kg IP, ** significant at 0.005
[16] = doses less than toxic, beginning with 4 mg/kg orally or ip
[17] = doses less than toxic, from 4 mg/kg orally or ip
[18] = doses very close to the lethal doses
[19] = only at doses very close to the lethal doses
[20] = 8 mg/kg orally 60 min before test
[21] = 16 mg/kg orally 60 min before test
[22] = 32 mg/kg orally 60 min before test
[23] = 64 mg/kg orally 60 min before test

In the case of `CC(O)CC(c1ccccc1)C(C(=O)O)c1ccccc1` (centres unmarked) [NaAHDH, Sodium Salt of 5-Hydroxy-2,3-Diphenyl-Hexanoic Acid], the “number of beams interrupted, 30 + 5 min” value ([1]; 16 mg/kg IP) is reported as 44, the “number of beams interrupted, 30 + 10 min” value ([1]; 16 mg/kg IP) is reported as 90 and the “number of beams interrupted, 30 + 15 min” value ([1]; 16 mg/kg IP) is reported as 133. The “number of beams interrupted, 30 + 20 min” value ([1]; 16 mg/kg IP) was 163, the “number of beams interrupted, 30 + 25 min” value ([1]; 16 mg/kg IP) was 195 and the “number of beams interrupted, 30 + 30 min” value ([1]; 16 mg/kg IP, * significant at 0.05) was 214 ± 28. For the same molecule, the “number of beams interrupted, 30 min” value ([1]; 16 mg/kg IP) was 376 ± 31, the “number of beams interrupted, 30 + 5 min” value ([1]; 32 mg/kg IP) was 65 and the “number of beams interrupted, 30 + 10 min” value ([1]; 32 mg/kg IP) was 118. For the same molecule, the “number of beams interrupted, 30 + 15 min” value ([1]; 32 mg/kg IP) was 183, the “number of beams interrupted, 30 + 20 min” value ([1]; 32 mg/kg IP) was 242 and the “number of beams interrupted, 30 + 25 min” value ([1]; 32 mg/kg IP) was 285. The “number of beams interrupted, 30 + 30 min” value ([1]; 32 mg/kg IP, test t 2,395) was 325 ± 26, the “number of beams interrupted, 30 min” value ([1]; 32 mg/kg IP) was 450 ± 39 and the “number of beams interrupted, 30 + 5 min” value ([1]; 64 mg/kg IP) was 90. For the same molecule, the “number of beams interrupted, 30 + 10 min” value ([1]; 64 mg/kg IP) was 195, the “number of beams interrupted, 30 + 15 min” value ([1]; 64 mg/kg IP) was 297 and the “number of beams interrupted, 30 + 20 min” value ([1]; 64 mg/kg IP) was 396. The “number of beams interrupted, 30 + 25 min” value ([1]; 64 mg/kg IP) was 429, the “number of beams interrupted, 30 + 30 min” value [1, 15] was 558 ± 56 and the “number of beams interrupted, 30 min” value [1, 15] was 580 ± 47. The motor activity ([1]; 32 and 64 mg/kg ip, significant for the first 30 minutes, regular and constant up to 60th minute) was “increase in motor activity”, the “time taken to fall asleep or length of sleep” value [2] was “no modification to the time taken to fall asleep or the length of sleep” and the “modification of hyperthermia or drooping eyelid induced by reserpine” value [3] was “no modification of hyperthermia or drooping eyelid induced by reserpine”. The LD50 ([4]; ip, intraperitoneally) was 175 mg/kg, the LD50 ([4]; po, administered orally) was 998 mg/kg and the “excitation, reactivity to touch and sound stimuli” value [5, 16] was “slight excitation was observed with enhanced reactivity to touch and sound stimuli”. The “diameter of the pupil” value [5, 17] was “no change was observed in the diameter of the pupil”, the hyperthermia [5, 17] was “slight hyperthermia” and the “motor coordination, abnormal or stereotyped movements” value [5, 17] was “not accompanied by lack of motor coordination or abnormal or stereotyped movements”. For the same molecule, the hyperthermia [5, 18] was “about 2 °C”, the toxic signs [5, 19] was “trembling, hyperreactivity to very intense stimuli, interaggressivity, and convulsive phenomena extending to the rear paws” and the “holes explored in 5 min” value (Perforated board test; [20]) was 101 percentage of controls. For the same molecule, the “movements made in 5 min” value (Perforated board test; [20]) was 102 percentage of controls, the “holes explored in 5 min” value (Perforated board test; [21]) was 121 percentage of controls and the “movements made in 5 min” value (Perforated board test; [21]) was 116 percentage of controls. For the same molecule, the “holes explored in 5 min” value (Perforated board test; [22]) was 140 percentage of controls, the “movements made in 5 min” value (Perforated board test; [22]) was 159 percentage of controls and the “holes explored in 5 min” value (Perforated board test; [23]) was 143 percentage of controls. The “movements made in 5 min” value (Perforated board test; [23]) was 150 percentage of controls, the movements (Perforated board test; orally) was “clear increase in movements” and the holes explored (Perforated board test; orally, significant from 16 mg/kg upward) was “large increase in the holes explored”. The minimal effective dose (Perforated board test; po, orally, read-out: dose from which increase in holes explored is significant) was no less than 16 mg/kg, the pentobarbital antagonism ([6]; at clearly stimulating doses) was “no pentobarbital antagonism” and the antihypnotic effect ([6]; compared with caffeine) was “no antihypnotic effect”. For the same molecule, the “duration or appearance of the convulsions” value [7] was “modified neither the duration nor appearance of the convulsions”, the “motility after the convulsion” value [7] was “no increase in motility after the convulsion” and the “effects of an analgesic dose of morphine on hot plate test” value ([8]; 32 mg/kg, with morphine) was “did not increase or decrease the effects of an analgesic dose of morphine”. The “reaction time (licking of front paws)” value ([8]; 15 min after 32 mg/kg orally, controls 7.3 seconds, significant at 0.05) was 5.8 s, the “modification of hyperthermia or drooping eyelid induced by reserpine” value [9] was “no modification of hyperthermia or drooping eyelid induced by reserpine” and the “modification of cataleptic condition” value [10] was “no modification to the cataleptic condition”. The “number of beams interrupted, 30 + 5 min” value ([11]; 16 mg/kg ip) was 39, the “number of beams interrupted, 30 + 10 min” value ([11]; 16 mg/kg ip) was 67 and the “number of beams interrupted, 30 + 15 min” value ([11]; 16 mg/kg ip) was 104. For the same molecule, the “number of beams interrupted, 30 + 20 min” value ([11]; 16 mg/kg ip) was 133, the “number of beams interrupted, 30 + 25 min” value ([11]; 16 mg/kg ip) was 156 and the “number of beams interrupted, 30 + 30 min” value ([11]; 16 mg/kg ip) was 182 ± 39. The “number of beams interrupted, 30 min” value ([11]; 16 mg/kg ip) was 461 ± 32, the “number of beams interrupted, 30 + 5 min” value ([11]; 32 mg/kg ip) was 88 and the “number of beams interrupted, 30 + 10 min” value ([11]; 32 mg/kg ip) was 191. For the same molecule, the “number of beams interrupted, 30 + 15 min” value ([11]; 32 mg/kg ip) was 274, the “number of beams interrupted, 30 + 20 min” value ([11]; 32 mg/kg ip) was 372 and the “number of beams interrupted, 30 + 25 min” value ([11]; 32 mg/kg ip) was 452. For the same molecule, the “number of beams interrupted, 30 + 30 min” value ([11]; 32 mg/kg ip) was 531 ± 84, the “number of beams interrupted, 30 min” value ([11]; 32 mg/kg ip) was 631 ± 49 and the “number of beams interrupted, 30 + 5 min” value ([11]; 32 mg/kg vo (orally)) was 31. For the same molecule, the “number of beams interrupted, 30 + 10 min” value ([11]; 32 mg/kg vo (orally)) was 69, the “number of beams interrupted, 30 + 15 min” value ([11]; 32 mg/kg vo (orally)) was 100 and the “number of beams interrupted, 30 + 20 min” value ([11]; 32 mg/kg vo (orally)) was 118. For the same molecule, the “number of beams interrupted, 30 + 25 min” value ([11]; 32 mg/kg vo (orally)) was 131, the “number of beams interrupted, 30 + 30 min” value ([11]; 32 mg/kg vo (orally)) was 164 ± 58 and the “number of beams interrupted, 30 min” value ([11]; 32 mg/kg vo (orally)) was 433 ± 43. For the same molecule, the “number of beams interrupted, 30 + 5 min” value ([11]; 64 mg/kg vo (orally)) was 58, the “number of beams interrupted, 30 + 10 min” value ([11]; 64 mg/kg vo (orally)) was 124 and the “number of beams interrupted, 30 + 15 min” value ([11]; 64 mg/kg vo (orally)) was 197. For the same molecule, the “number of beams interrupted, 30 + 20 min” value ([11]; 64 mg/kg vo (orally)) was 265, the “number of beams interrupted, 30 + 25 min” value ([11]; 64 mg/kg vo (orally)) was 325 and the “number of beams interrupted, 30 + 30 min” value ([11]; 64 mg/kg vo (orally)) was 396 ± 62. For the same molecule, the “number of beams interrupted, 30 min” value ([11]; 64 mg/kg vo (orally)) was 517 ± 25, the motor activity ([11]; 16 and 32 mg/kg intraperitoneally) was “increase in motor activity” and the motor activity ([11]; 32 and 64 mg/kg orally) was “increase in motor activity”. The “change in avoidance conditioning” value [12] was “no change in the conditioning”, the “signs of sympathetic excitation” value ([13]; by contrast to nooanaleptics) was “no signs of sympathetic excitation” and the “persistence of increase in activity and wakefulness” value ([13]; orally, after administration) was “about 2 hours”. For the same molecule, the sexual behavior [14] was “increase of sexual behavior”, the “excitation, reactivity to touch and sound stimuli” value [14, 16] was “slight excitation was observed with enhanced reactivity to touch and sound stimuli” and the “diameter of the pupil” value [14, 17] was “no change was observed in the diameter of the pupil”. The hyperthermia [14, 17] was “slight hyperthermia”, the “motor coordination, abnormal or stereotyped movements” value [14, 17] was “not accompanied by lack of motor coordination or abnormal or stereotyped movements” and the hyperthermia [14, 18] was “about 2 °C”. The toxic signs [14, 19] was “trembling, hyperreactivity to very intense stimuli, interaggressivity, and convulsive phenomena extending to the rear paws” and the “potentialization of effects of infra-convulsant dose of tryptamine” value (monoaminoxidase) was “no potentialization of the effects of an infra-convulsant dose of tryptamine”.
